Data set [1] deals with MES-induced seizures in mice. The data set can be described thus: Maximal electroshock seizure (MES) test. Format: in vivo. The note with it: for responders at 100 mg/kg / ED50: Mus musculus, ip; for responders at 100 mg/kg / protection in MES screening: 100 mg/kg i.p., 0.5 h; for responders at 100 mg/kg: read-out: MES screening: number of mice protected/number of mice tested (converted); for protection in MES screening: four mice; for ED50: mice, pretreatment time 0.5 h, (95% confidence limits). On the procedure: (§1) Adult male Albino Swiss mice that weighed between 22 and 26 g were used in the in vivo studies. They were housed under standardized housing conditions in colony cages and had free access to food as well as tap water. The animals were left to adapt under laboratory conditions for 7 days. All procedures involving animals and their care were performed in accordance with the current European Community and Polish legislation on animal experimentation.
(§2) In the initial screening studies, four mice per group were randomly assigned to each experimental group (each mouse was used only once). To evaluate the ED50 or TD50 values, 3–4 groups that consisted of eight animals were injected with various doses of tested compounds. The protective indexes (PIs) for the compounds that were investigated and reference ASDs were calculated by dividing the TD50 value, as determined in the chimney test (or rotarod test), by the respective ED50 value, as determined in the MES, scPTZ, or 6 Hz (32 mA or 44 mA) tests (PI = TD50/ED50). The PIs is a measure of the potential therapeutic window of the tested agent.
(§3) All substances were suspended in Tween 80 (1% aqueous solution) and administered i.p. as a single injection at a dose of 10 mL/kg. On each day of experimentation, fresh solutions were prepared. The results are summarized in Table S1 (screening data) and Table 2 (ED50, TD50, and PI values, see Section 3 Results and Discussion).
(§4) The detailed in vivo procedures are described elsewhere: the maximal electroshock seizure test (MES), the subcutaneous pentylenetetrazole seizure test (scPTZ), the 6 Hz psychomotor seizure model (32 mA and 44 mA), and the chimney test.
(§5) The basic animal seizure models such as the MES, 6 Hz (32 mA or 44 mA), and the scPTZ are still a standard in the discovery and development of new ASDs. In vivo screening approaches enable the identification of compounds with unidentified and potentially novel mechanisms of action besides substances with well-established pharmacodynamics. Bearing in mind the aforementioned facts, compounds 45–66 were initially studied in the MES test and in the 6 Hz seizure model (32 mA) after intraperitoneal (i.p.) administration at a screening dose of 100 mg/kg in mice at a time point of 0.5 h (the screening group consisted of four mice, the results obtained are summarized in Table S1). It should be stressed that the MES test is an experimental model of human tonic–clonic epilepsy as well as partial convulsions with or without secondary generalization, the 6 Hz model (32 mA) corresponds to human focal epilepsy, whereas the scPTZ test relates to human generalized absence or myoclonic seizures.
(§6) We also established the median toxic doses (TD50) in the chimney test 0.5 h post i.p. administration of these compounds. Both the aforementioned parameters enabled the calculation of the protective indexes (PIs).
Background: Protection in the maximal electroshock model is a classic sign of anticonvulsant action.

For a further data set, the target named is T1, TRPV1 (VR1) (h) (Homo sapiens, UniProt Q8NER1).
T1 construct: host or cells: CHO
T1 sequence (Q8NER1 whole entry): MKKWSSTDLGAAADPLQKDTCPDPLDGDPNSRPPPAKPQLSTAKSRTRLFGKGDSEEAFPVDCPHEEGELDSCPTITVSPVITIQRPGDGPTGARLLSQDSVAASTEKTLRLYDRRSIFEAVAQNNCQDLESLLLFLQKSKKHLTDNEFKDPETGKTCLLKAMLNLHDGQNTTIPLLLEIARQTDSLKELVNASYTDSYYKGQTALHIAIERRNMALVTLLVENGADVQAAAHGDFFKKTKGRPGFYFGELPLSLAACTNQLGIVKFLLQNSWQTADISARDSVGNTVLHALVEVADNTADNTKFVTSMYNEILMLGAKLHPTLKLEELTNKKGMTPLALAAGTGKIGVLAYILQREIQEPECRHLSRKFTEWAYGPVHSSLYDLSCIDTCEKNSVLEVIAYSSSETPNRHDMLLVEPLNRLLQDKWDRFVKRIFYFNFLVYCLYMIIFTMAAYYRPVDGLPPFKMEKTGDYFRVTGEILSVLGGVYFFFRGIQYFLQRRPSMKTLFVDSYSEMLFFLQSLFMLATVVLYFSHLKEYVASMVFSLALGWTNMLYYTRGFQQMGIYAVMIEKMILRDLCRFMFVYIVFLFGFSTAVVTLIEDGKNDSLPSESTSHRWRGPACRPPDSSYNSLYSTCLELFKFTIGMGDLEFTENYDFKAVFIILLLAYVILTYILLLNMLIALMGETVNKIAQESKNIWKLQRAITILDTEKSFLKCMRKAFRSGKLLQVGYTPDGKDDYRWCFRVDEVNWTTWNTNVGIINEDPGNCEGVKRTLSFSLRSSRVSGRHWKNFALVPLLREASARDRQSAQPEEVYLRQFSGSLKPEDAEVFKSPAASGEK
The data set can be described thus: TRPV1 (VR1) (h) antagonist effect functional assay. The format is cell-based. The conditions noted are these: human recombinant CHO cells, read-out: % Inhibition of control agonist response, TRPV1 (antagonist effect). On the procedure: Binding/functional studies were carried out commercially in Eurofins Laboratories (Poitiers, France) and Eurofins Panlabs Discovery Services Taiwan, Ltd. (New Taipei City, Taiwan) using testing procedures that were reported previously (for details see Table S2).
Table S2. Radioligand binding and functional assays. […]
Assays were performed commercially in Eurofins Laboratories (Poitiers, France) or Eurofins Panlabs Discovery Services Taiwan, Ltd. (New Taipei City, Taiwan).
Table S3. In vitro TRPV1 channel antagonist activity for compounds 45–66 (concentration of 100 µM). […]
Cmpd % Inhibition of control Cmpd % Inhibition of control agonist responsea agonist responsea
*Source: human recombinant CHO cells. a Results showing activity higher than 50% are considered to represent […]
variability of the sign al around the control level. Assays were performed commercially in Eurofins Laboratories

The subject of data set [2] is 6 Hz (32 mA) seizures in mice. Kind of data set: 6 Hz (32 mA) psychomotor seizure model. The note with it: Mus musculus, ip; for responders at 100 mg/kg: 100 mg/kg i.p., 0.5 h; for ED50: mice, pretreatment time 0.5 h, (95% confidence limits). The format is in vivo. On the procedure: as §1, §2, §3, §4, §5, §6
Data set [3] concerns scPTZ-induced seizures in mice. The data set can be described thus: Subcutaneous pentylenetetrazole (scPTZ) seizure test. The format is in vivo. The note with it: 100 mg/kg i.p., 0.5 h. On the procedure:
as §1, §2, §3, §4, §5

[4] abbreviates: read-out: 6 Hz (32 mA) screening: number of mice protected/number of mice tested (converted).
[5] abbreviates: four mice, read-out: protection in 6 Hz (32 mA) screening.

Read-outs that look alike come from different tables or passages of the source.

For orientation: inhibition means the relative decrease from the control value, in per cent. In general, melting point refers to the temperature, or range, at which the solid turns liquid. For the molecule `CC(=O)NC(C(=O)N1CCN(c2cc(C(F)(F)F)cc(C(F)(F)F)c2)CC1)c1ccccc1` (stereo not shown) [Compound 55, N-(2-(4-(3,5-bis(trifluoromethyl)phenyl)piperazin-1-yl)-2-oxo-1-phenylethyl)acetamide], the melting point fell in the range of 194.2 to 195.4 °C. For the same molecule, in data set [1], the responders at 100 mg/kg was 0%. Also, on TRPV1 (VR1) (h), the inhibition at 100 µM is -14%. Also, the responders at 100 mg/kg in data set [2] (setting [4]) is 25%.

Turning to `CC(=O)NC(C(=O)N1CCN(c2ccc(C(F)(F)F)cc2)CC1)c1ccccc1` (stereo not shown) [Compound 54, N-(2-oxo-1-phenyl-2-(4-(4-(trifluoromethyl)phenyl)piperazin-1-yl)ethyl)acetamide], the figures for the responders at 100 mg/kg in data set [1], in data set [2] (setting [5]) and in data set [2] (setting [4]) were 0%, 50% and 50%, respectively. Besides, at TRPV1 (VR1) (h), the inhibition at 100 µM amounted to 128%.

For the molecule `CC(=O)NC(C(=O)N1CCN(c2cccc(C)c2)CC1)c1ccccc1` (stereo not shown) [Compound 56, N-(2-oxo-1-phenyl-2-(4-(m-tolyl)piperazin-1-yl)ethyl)acetamide], the responders at 100 mg/kg in data set [1] was 0%; in data set [2] (setting [4]) it was 25%. The inhibition at 100 µM at TRPV1 (VR1) (h) worked out at 57.4%.

In the case of `CC(=O)NC(C(=O)N1CCN(c2cccc(C(F)F)c2)CC1)c1ccccc1` (stereo not shown) [Compound 57, N-(2-(4-(3-(difluoromethyl)phenyl)piperazin-1-yl)-2-oxo-1-phenylethyl)acetamide], the responders at 100 mg/kg in data set [1] is 0%; in data set [2] (setting [4]) it was 25%. The inhibition at 100 µM on TRPV1 (VR1) (h) was 43.7%.

Molecule `CC(=O)NC(C(=O)N1CCN(c2cc(Cl)cc(Cl)c2)CC1)c1ccccc1` (stereo not shown) [Compound 50, N-(2-(4-(3,5-dichlorophenyl)piperazin-1-yl)-2-oxo-1-phenylethyl)acetamide] showed a melting point of 185.9 to 187.3 °C. Also, the responders at 100 mg/kg in data set [1] is 0%. Moreover, at TRPV1 (VR1) (h), the inhibition at 100 µM amounted to 128%. In addition, in data set [2] (setting [4]), the responders at 100 mg/kg is 25%.

For the molecule `CC(=O)NC(C(=O)N1CCN(c2ncccc2C(F)(F)F)CC1)c1ccccc1` (stereo not shown) [Compound 63, N-(2-oxo-1-phenyl-2-(4-(3-(trifluoromethyl)pyridine-2-yl)piperazin-1-yl)ethyl)acetamide], the melting point fell in the range of 147.8 to 148.9 °C. Also, the responders at 100 mg/kg in data set [1] is 0%. For the same molecule, the inhibition at 100 µM on TRPV1 (VR1) (h) was -2.8%.

By ED50 is commonly meant the dose that gives a 50% effect, or the effect in half of the subjects. For the molecule `CC(=O)NC(C(=O)N1CCN(c2ccc(Cl)cc2)CC1)c1ccccc1` (stereo not shown) [Compound 48, N-(2-(4-(4-chlorophenyl)piperazin-1-yl)-2-oxo-1-phenylethyl)acetamide], the melting point was 133.3 to 134.6 °C. For the same molecule, in data set [1], the “protection in MES screening” value is given as 25%, the responders at 100 mg/kg was 25% and the ED50 was over 150 mg/kg. In addition, the inhibition at 100 µM at TRPV1 (VR1) (h) was 127%. In addition, the responders at 100 mg/kg in data set [2] (setting [5]) is 75%. For the same molecule, in data set [2] (setting [4]), the responders at 100 mg/kg was 75%. For the same molecule, the ED50 in data set [2] was 60.1 mg/kg.

Consider `CC(=O)NC(C(=O)N1CCN(c2cc(Cl)cc(C(F)(F)F)c2)CC1)c1ccccc1` (stereo not shown) [Compound 51, N-(2-(4-(3-chloro-5-(trifluoromethyl)phenyl)piperazin-1-yl)-2-oxo-1-phenylethyl) acetamide], for which the responders at 100 mg/kg was 0% in data set [1] and 25% in data set [2] (setting [4]). At TRPV1 (VR1) (h), the inhibition at 100 µM was -2.5%.

On to `COc1cccc(N2CCN(C(=O)C(NC(C)=O)c3ccccc3)CC2)c1` (stereo not shown) [Compound 59, N-(2-(4-(3-methoxyphenyl)piperazin-1-yl)-2-oxo-1-phenylethyl)acetamide], for which the responders at 100 mg/kg in data set [1] is 0%. For the same molecule, the inhibition at 100 µM on TRPV1 (VR1) (h) is 20.1%.

Consider `CC(=O)NC(C(=O)N1CCN(c2cccc(Oc3ccccc3)c2)CC1)c1ccccc1` (stereo not shown) [Compound 61, N-(2-oxo-2-(4-(3-phenoxyphenyl)piperazin-1-yl)-1-phenylethyl)acetamide], for which the responders at 100 mg/kg in data set [1] was 0%; in data set [2] (setting [4]), 25%. The inhibition at 100 µM at TRPV1 (VR1) (h) turned out to be 52.5%.

In turn, `CC(=O)NC(C(=O)N1CCN(c2ccc(C(F)(F)F)cn2)CC1)c1ccccc1` (stereo not shown) [Compound 65, N-(2-oxo-1-phenyl-2-(4-(5-(trifluoromethyl)pyridine-2-yl)piperazin-1-yl)ethyl)acetamide] came in with a melting point of 91.2 to 92.4 °C. Further, in data set [3], the “scPTZ screening: number of mice protected/number of mice tested” value is 0/4. Further, in data set [1], the “protection in MES screening” value worked out at 75%, the responders at 100 mg/kg was 75% and the ED50 was over 100 mg/kg. For the same molecule, at TRPV1 (VR1) (h), the inhibition at 100 µM was 8.5%. In addition, the responders at 100 mg/kg in data set [2] (setting [5]) is 75%. Moreover, the responders at 100 mg/kg in data set [2] (setting [4]) was 75%. Moreover, the ED50 in data set [2] is 64.9 mg/kg.

On to `CC(=O)NC(C(=O)N1CCN(c2cc(C(F)(F)F)ccn2)CC1)c1ccccc1` (stereo not shown) [Compound 64, N-(2-oxo-1-phenyl-2-(4-(4-(trifluoromethyl)pyridine-2-yl)piperazin-1-yl)ethyl)acetamide], for which the melting point lay within 91.4 to 92.3 °C. In addition, the responders at 100 mg/kg in data set [1] is 0%. Besides, on TRPV1 (VR1) (h), the inhibition at 100 µM worked out at 39.7%. In data set [2] (setting [4]), the responders at 100 mg/kg was 25%.

On to `CC(=O)NC(C(=O)N1CCN(c2cccc(C(F)(F)F)n2)CC1)c1ccccc1` (stereo not shown) [Compound 66, N-(2-oxo-1-phenyl-2-(4-(6-(trifluoromethyl)pyridine-2-yl)piperazin-1-yl)ethyl)acetamide], for which the melting point is 151.6 to 152.3 °C. Also, the responders at 100 mg/kg in data set [1] was 0%. The inhibition at 100 µM on TRPV1 (VR1) (h) was 3.7%. The responders at 100 mg/kg in data set [2] (setting [5]) amounted to 50%. In addition, the responders at 100 mg/kg in data set [2] (setting [4]) was 50%.

Regarding `CC(=O)NC(C(=O)N1CCN(c2ccccc2Cl)CC1)c1ccccc1` (stereo not shown) [Compound 46, N-(2-(4-(2-chlorophenyl)piperazin-1-yl)-2-oxo-1-phenylethyl)acetamide], the values for the responders at 100 mg/kg in data set [1], in data set [2] (setting [5]) and in data set [2] (setting [4]) were 0%, 50% and 50%, respectively. Further, the inhibition at 100 µM at TRPV1 (VR1) (h) is 116%.

On to `CC(=O)NC(C(=O)N1CCN(c2ccccc2C(F)(F)F)CC1)c1ccccc1` (stereo not shown) [Compound 52, N-(2-oxo-1-phenyl-2-(4-(2-(trifluoromethyl)phenyl)piperazin-1-yl)ethyl)acetamide], for which the responders at 100 mg/kg in data set [1] was 0%; in data set [2] (setting [5]), 50%; in data set [2] (setting [4]) it was 50%. Also, at TRPV1 (VR1) (h), the inhibition at 100 µM is 90.9%.

Take `CC(=O)NC(C(=O)N1CCN(c2ccc(Cl)c(Cl)c2)CC1)c1ccccc1` (stereo not shown) [Compound 49, N-(2-(4-(3,4-dichlorophenyl)piperazin-1-yl)-2-oxo-1-phenylethyl)acetamide]: the responders at 100 mg/kg in data set [1] was 0%; in data set [2] (setting [4]), 25%. Moreover, on TRPV1 (VR1) (h), the inhibition at 100 µM was 135%.

Take `CC(=O)NC(C(=O)N1CCN(c2cccc(-c3ccccc3)c2)CC1)c1ccccc1` (stereo not shown) [Compound 58, N-(2-(4-([1,1’-biphenyl]-3-yl)piperazin-1-yl)-2-oxo-1-phenylethyl)acetamide]: the responders at 100 mg/kg in data set [1] is 0%; in data set [2] (setting [5]), 50%; in data set [2] (setting [4]), 50%. In addition, the inhibition at 100 µM at TRPV1 (VR1) (h) worked out at 92%.

The record behind these values is article PMC9221546, “New Phenylglycinamide Derivatives with Hybrid Structure as Candidates for New Broad-Spectrum Anticonvulsants” (Cells, 2022).
